Assay results taken from patent publication US6455577B2, “Flavanone derivatives and composition for preventing or treating blood lipid level-related diseases comprising same” (Korea Research Institute of Bioscience and Biotechnology, priority 2000, dated 2002).

Tested on: ICR mice
Assay: Toxicity of orally administered NG5006 in mice
Type: in vivo, mouse
Conditions: single oral dose 1, 2 and 4 g/kg
Procedure: 4 week-old, specific pathogen-free ICR female mice(12 heads) and male mice(12 heads) were bred under a condition of temperature 22±3° C., moisture 55±10% and photoperiod 12L/12D. Fodder(Cheiljedang Co., mouse and rat fodder) and water were sterilized and fed to the mice.
NG5006 was dissolved in 0.5% Tween 80 to a concentration of 100 mg/ml. The solution thus obtained was orally administered to the mice in amounts of 0.2 ml(1 g/kg), 0.4 ml(2 g/kg) and 0.8 ml(4g/kg) per 20 g of mouse body weight, respectively. […] The weight changes of the mice were recorded every day to examine the effect of NG5006. Further, on the 7th day, the mice were sacrificed and the internal organs were visually examined.

CCCCCCCCCCCCCCCCOc1cc(O)c2c(c1)OC(c1ccc(O)cc1)CC2=O (stereo not shown) [NG5006, Naringenin 7-O-cetyl Ether]
weight change (7 day test period): no weight loss
survival (observed 7 days): All the mice were alive at day 7
toxicity (observed 7 days): no toxicity
autopsy, pathological abnormality (sacrificed on the 7th day): did not develop any pathological abnormality
